What was measured:
[1] = Case clinical study: penetration after topical application with cryo-cracking versus simple rubbing; format: in vivo; conditions: 3 hrs after topical application using cryo-cracking procedure
From the text: This study also included FITC with Dextran of 4 kDa and 70 kDA.

[2] = format: in vitro ADME, pork
Description: A study comprising applying conjugated FITC-Dextran with 4000 Daltons molecular weight as a surrogate of water-soluble drugs on ex vivo pork skin samples was performed. Thermoelectric coolers and other cooling devices can be used as well. In these experiments […] was used as the cryogenic agent. Exposure time can range from minutes to millisecond exposures, depending on the type of coolant used. […] For applying suction, any method of creating suction or positive pressure on the skin can be used. For example, the Isolaze device from […] can be used to apply a suction of 380 mm Hg. To investigate this, a study was initiated consisting of applying conjugated FITC-Dextran with 4000 Daltons molecular weight as a surrogate of water-soluble drugs on ex vivo pork skin samples. After exposing skin samples for 30 min to 3 hours after topical application, a cross-sections of skin was cut ( 20 microns thick) to observe directly the Dextran penetration via the intensity of the FITC fluorescence with the aid of a confocal fluorescent microscope.

| Compound | penetration into the stratum corneum and epidermis down the microcracks, compared to penetration after simple rubbing [1] | transdermal delivery of drug surrogate using the cryo-cracking process [2] |
| --- | --- | --- |
| O=C1OC2(c3ccc(O)cc3Oc3cc(O)ccc32)c2ccc(N=C=S)cc21 [FITC] | much more significant | effectively delivered |
| Dylight |  | delivered |

Reference: patent US20110178456A1, “ASSISTING TRANSDERMAL DRUG DELIVERY BY MEANS OF TISSUE FREEZING, VACUUM PRESSURE AND PHOTOHEATING PROCEDURES” (THE REGENTS OF THE UNIVERSITY OF CALIFORNIA, priority 2009, published 2011)
